Laboratory results: patent US12358915B2, “METTL3 inhibitory compounds” (STORM THERAPEUTICS LTD., priority 2019, dated 2025)

Molecular target: T1, METTL3/14 (Homo sapiens, UniProt Q86U44)
T1 construct: The enzyme used was full-length his-tagged METTL3; His; made in house
Experiment: METTL3/14 methyltransferase assay (METTL3_14 RFMS, RapidFire mass spectrometry);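 further: recombinant His-tagged METTL3 with FLAG-tagged METTL14 from baculovirus, SAH product quantified by mass spectrometry against isotope-labelled internal standards, 60 min at room temperature, scaled between no-RNA and DMSO-only wells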
Type: biochemical
Conditions: 5 nM METTL3/14, 0.2 μM RNA substrate, 0.5 μM SAM; lower limit of the assay IC50=5 nM; Compounds 63-265; read-out: METTL3_14 RFMS IC50

T1 sequence (Q86U44 whole entry): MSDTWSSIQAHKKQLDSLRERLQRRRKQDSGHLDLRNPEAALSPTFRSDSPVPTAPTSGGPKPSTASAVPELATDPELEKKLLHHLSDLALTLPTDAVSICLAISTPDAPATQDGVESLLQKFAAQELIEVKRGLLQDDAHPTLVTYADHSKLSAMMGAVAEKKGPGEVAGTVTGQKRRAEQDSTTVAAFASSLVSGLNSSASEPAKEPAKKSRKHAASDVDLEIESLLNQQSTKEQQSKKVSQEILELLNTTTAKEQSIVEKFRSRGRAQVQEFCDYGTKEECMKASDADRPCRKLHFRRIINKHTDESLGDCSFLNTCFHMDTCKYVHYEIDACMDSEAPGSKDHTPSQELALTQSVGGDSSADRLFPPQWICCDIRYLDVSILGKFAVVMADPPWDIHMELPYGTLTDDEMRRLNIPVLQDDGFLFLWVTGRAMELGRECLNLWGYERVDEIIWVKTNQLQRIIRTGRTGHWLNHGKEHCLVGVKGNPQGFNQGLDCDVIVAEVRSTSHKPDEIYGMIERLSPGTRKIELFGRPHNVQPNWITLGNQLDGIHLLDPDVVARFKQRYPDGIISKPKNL
T1 sequence (Q9HCE5 whole entry partner): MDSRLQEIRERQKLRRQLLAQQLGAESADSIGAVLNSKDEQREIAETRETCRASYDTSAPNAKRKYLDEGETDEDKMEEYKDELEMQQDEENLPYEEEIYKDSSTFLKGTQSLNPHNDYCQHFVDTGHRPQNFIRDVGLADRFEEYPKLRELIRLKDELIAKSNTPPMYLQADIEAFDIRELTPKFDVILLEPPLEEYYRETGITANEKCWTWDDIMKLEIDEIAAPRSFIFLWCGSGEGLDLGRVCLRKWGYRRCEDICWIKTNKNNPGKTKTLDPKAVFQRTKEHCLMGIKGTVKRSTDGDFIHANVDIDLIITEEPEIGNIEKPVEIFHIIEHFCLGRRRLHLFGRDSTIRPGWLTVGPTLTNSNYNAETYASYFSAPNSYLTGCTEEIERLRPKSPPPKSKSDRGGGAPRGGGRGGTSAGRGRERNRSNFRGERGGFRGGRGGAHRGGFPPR

IC50 [µM]	Structure (SMILES)
0.099	CN(Cc1ccc2nc(CNC(=O)c3cc(=O)n4ccccc4n3)cn2c1)CC1CC1 [Compound 136, N-[(6-{[(cyclopropyl-methyl)(methyl)amino]methyl}imidazo[1,2-a]pyridin-2-yl)methyl]-4-oxo-4H-pyrido[1,2-a]pyrimidine-2-carboxamide]
0.0178	CC1CCN(Cc2ccc3nc(CNC(=O)c4cc(=O)n5ccccc5n4)cn3c2)CC1 [Compound 137, N-({6-[(4-methylpiperidin-1-yl)methyl]imidazo[1,2-a]pyridin-2-yl}methyl)-4-oxo-4H-pyrido[1,2-a] pyrimidine-2-carboxamide]
0.0314	O=C(NCc1cn2cc(CN3CCC(C(F)(F)F)CC3)ccc2n1)c1cc(=O)n2ccccc2n1 [Compound 138, 4-oxo-N-[(6-{[4-(trifluoromethyl)piperidin-1-yl]methyl}imidazo [1,2-a]pyridin-2-yl)methyl]-4H-pyrido[1,2-a] pyrimidine-2-carboxamide]
0.0326	CC1CCCN(Cc2ccc3nc(CNC(=O)c4cc(=O)n5ccccc5n4)cn3c2)C1 (centres unmarked) [Compound 139, N-({6-[(3-methylpiperidin-1-yl)methyl]imidazo[1,2-a]pyridin-2-yl}methyl)-4-oxo-4H-pyrido[1,2-a]pyrimidine-2-carboxamide]
0.0187	O=C(NCc1cn2cc(CNCC3CC34CC4)ccc2n1)c1cc(=O)n2ccccc2n1 (centres unmarked) [Compound 140]
0.0145	CC1(C)CCCN(Cc2ccc3nc(CNC(=O)c4cc(=O)n5ccccc5n4)cn3c2)C1 [Compound 141, N-({6-[(3,3-dimethylpiperidin-1-yl)methyl]imidazo[1,2-a]pyridin-2-yl}methyl)-4-oxo-4H-pyrido[1,2-a]pyrimidine-2-carboxamide]
0.0488	O=C(NCc1cn2cc(CN3CCCC(C(F)(F)F)C3)ccc2n1)c1cc(=O)n2ccccc2n1 (centres unmarked) [Compound 142, 4-oxo-N-[(6-{[3-(trifluoromethyl)piperidin-1-yl]methyl}imidazo [1,2-a]pyridin-2-yl)methyl]-4H-pyrido[1,2-a] pyrimidine-2-carboxamide]
0.136	CC1(C)CCC(CNCc2ccc3nc(CNC(=O)c4cc(=O)n5ccccc5n4)cn3c2)O1 (centres unmarked) [Compound 143, N-{[6-({[(5,5-dimethyloxolan-2-yl)methyl]amino}methyl)imidazo[1,2-a]pyridin-2-yl]methyl}-4-oxo-4H-pyrido[1,2-a] pyrimidine-2-carboxamide]
0.0597	O=C(NCc1cn2cc(CN3CCC(F)CC3)ccc2n1)c1cc(=O)n2ccccc2n1 [Compound 144, N-({6-[(4-fluoropiperidin-1-yl)methyl]imidazo[1,2-a]pyridin-2-yl}methyl)-4-oxo-4H-pyrido[1,2-a]pyrimidine-2-carboxamide]
0.0251	CC1(NCc2ccc3nc(CNC(=O)c4cc(=O)n5ccccc5n4)cn3c2)CCCCC1 [Compound 146, N-[(6-{[(1-methylcyclohexyl)amino]methyl}imidazo[1,2-a]pyridin-2-yl)methyl]-4-oxo-4H-pyrido[1,2-a]pyrimidine-2-carboxamide]
0.224	CC1(C)COC(CNCc2ccc3nc(CNC(=O)c4cc(=O)n5ccccc5n4)cn3c2)C1 (centres unmarked) [Compound 147, N-{[6-({[(4,4-dimethyloxolan-2-yl)methyl]amino}methyl)imidazo[1,2-a]pyridin-2-yl]methyl}-4-oxo-4H-pyrido[1,2-a] pyrimidine-2-carboxamide]
0.0285	CC1(NCc2ccc3nc(CNC(=O)c4cc(=O)n5ccccc5n4)cn3c2)CCCC1 [Compound 148, N-[(6-{[(1-methylcyclopentyl)amino]methyl}imidazo[1,2-a]pyridin-2-yl)methyl]-4-oxo-4H-pyrido [1,2-a]pyrimidine-2-carboxamide]
0.0402	CCCNCc1ccc2nc(CNC(=O)c3cc(=O)n4ccccc4n3)cn2c1 [Compound 149, 4-oxo-N-({6-[(propylamino)methyl]imidazo [1,2-a]pyridin-2-yl}methyl)-4H-pyrido[1,2-a] pyrimidine-2-carboxamide]
0.0299	CC1(C)CCOC1CNCc1ccc2nc(CNC(=O)c3cc(=O)n4ccccc4n3)cn2c1 (centres unmarked) [Compound 150, N-{[6-({[(3,3-dimethyloxolan-2-yl)methyl]amino}methyl)imidazo[1,2-a]pyridin-2-yl]methyl}-4-oxo-4H-pyrido[1,2-a] pyrimidine-2-carboxamide]
0.0163	CC(C)CNCc1ccc2nc(CNC(=O)c3cc(=O)n4ccccc4n3)cn2c1 [Compound 151, N-[(6-{[(2-methylpropyl)amino]methyl}imidazo[1,2-a]pyridin-2-yl)methyl]-4-oxo-4H-pyrido[1,2-a] pyrimidine-2-carboxamide]
1.58	O=C(NCc1cn2cc(CNc3ccc(Cl)cc3)ccc2n1)c1cc(=O)n2ccccc2n1 [Compound 153, N-[(6-{[(4-chlorophenyl)amino]methyl}imidazo[1,2-a]pyridin-2-yl)methyl]-4-oxo-4H-pyrido[1,2-a] pyrimidine-2-carboxamide]
1.18	O=C(NCc1cn2cc(CNCCC3CCCCO3)ccc2n1)c1cc(=O)n2ccccc2n1 (centres unmarked) [Compound 154, N-{[6-({[2-(oxan-2-yl)ethyl]amino}methyl)imidazo [1,2-a]pyridin-2-yl]methyl}-4-oxo-4H-pyrido[1,2-a] pyrimidine-2-carboxamide]
0.177	O=C(NCc1cn2cc(CN3CCC(Cc4ccccc4)CC3)ccc2n1)c1cc(=O)n2ccccc2n1 [Compound 155, N-({6-[(4-benzylpiperidin-1-yl)methyl]imidazo[1,2-a]pyridin-2-yl}methyl)-4-oxo-4H-pyrido [1,2-a]pyrimidine-2-carboxamide]
0.0617	O=C(NCc1cn2cc(CN3CCC(Oc4ccccc4)CC3)ccc2n1)c1cc(=O)n2ccccc2n1 [Compound 156, 4-oxo-N-({6-[(4-phenoxypiperidin-1-yl)methyl]imidazo[1,2-a]pyridin-2-yl}methyl)-4H-pyrido[1,2-a] pyrimidine-2-carboxamide]
0.0429	O=C(NCc1cn2cc(CNCC3CC3(F)F)ccc2n1)c1cc(=O)n2ccccc2n1 (centres unmarked) [Compound 157, N-{[6-({[(2,2-difluoro-cyclopropyl)methyl]amino}methyl)imidazo [1,2-a]pyridin-2-yl]methyl}-4-oxo-4H-pyrido [1,2-a]pyrimidine-2-carboxamide]
3.81	O=C(NCc1cn2cc(CNc3cccc(Cl)c3)ccc2n1)c1cc(=O)n2ccccc2n1 [Compound 158, N-[(6-{[(3-chlorophenyl)amino]methyl}imidazo[1,2-a]pyridin-2-yl)methyl]-4-oxo-4H-pyrido[1,2-a]pyrimidine-2-carboxamide]
0.0195	CC1(C)CC1CNCc1ccc2nc(CNC(=O)c3cc(=O)n4ccccc4n3)cn2c1 (centres unmarked) [Compound 159, N-{[6-({[(2,2-dimethyl-cyclopropyl)methyl]amino}methyl)imidazo [1,2-a]pyridin-2-yl]methyl}-4-oxo-4H-pyrido [1,2-a]pyrimidine-2-carboxamide]

Structure (SMILES)	IC50 [µM]
CC(C)(C)OCCNCc1ccc2nc(CNC(=O)c3cc(=O)n4ccccc4n3)cn2c1 [Compound 152, N-{[6-({[2-(tert-butoxy)ethyl]amino}methyl)imidazo[1,2-a]pyridin-2-yl]methyl}-4-oxo-4H-pyrido[1,2-a] pyrimidine-2-carboxamide]	0.104
